{
  "source": "ChEMBL document CHEMBL1129930",
  "about": "“Analogues of methotrexate in rheumatoid arthritis. 2. Effects of 5-deazaaminopterin, 5,10-dideazaaminopterin, and analogues on type II collagen-induced arthritis in mice” (J Med Chem, 1997)",
  "type_in_all_cases": "functional",
  "key": {"[1]": {"test_system": "Mus musculus", "experiment": "Incidence of disease (mouse type II collagen) was scored as the percentage of animals within each experimental group that exhibited joint or limb inflammation on day 37 at intraperitoneal dose of 0.75 mg/kg"}, "[2]": {"test_system": "Mus musculus", "experiment": "Incidence of disease (mouse type II collagen) was scored as the percentage of animals within each experimental group that exhibited joint or limb inflammation on day 37 at intraperitoneal dose of 1.5 mg/kg"}, "[3]": {"test_system": "Mus musculus", "experiment": "Incidence of disease (mouse type II collagen) was scored as the percentage of animals within each experimental group that exhibited joint or limb inflammation on day 23 at intraperitoneal dose of 0.75 mg/kg"}, "[4]": {"test_system": "Mus musculus", "experiment": "Incidence of disease (mouse type II collagen) was scored as the percentage of animals within each experimental group that exhibited joint or limb inflammation on day 23 at intraperitoneal dose of 1.5 mg/kg"}, "[5]": {"test_system": "Mus musculus", "experiment": "Incidence of disease (mouse type II collagen) was scored as the percentage of animals within each experimental group that exhibited joint or limb inflammation on day 44 at intraperitoneal dose of 1.5 mg/kg"}, "[6]": {"test_system": "Mus musculus", "experiment": "Incidence of disease (mouse type II collagen) was scored as the percentage of animals within each experimental group that exhibited joint or limb inflammation on day 44 at intraperitoneal dose of 0.75 mg/kg"}, "[7]": {"test_system": "Mus musculus", "experiment": "Incidence of disease (mouse type II collagen) was scored as the percentage of animals within each experimental group that exhibited joint or limb inflammation on day 30 at intraperitoneal dose of 0.75 mg/kg"}, "[8]": {"test_system": "Mus musculus", "experiment": "Incidence of disease (mouse type II collagen) was scored as the percentage of animals within each experimental group that exhibited joint or limb inflammation on day 30 at intraperitoneal dose of 1.5 mg/kg"}, "[9]": {"test_system": "Mus musculus", "experiment": "Tested for antiinflammatory activity on mouse type II collagen arthritis as Paw swelling of all animals in each group on day 44 at intraperitoneal dose of 1.50 mg/kg", "conditions": "dose 1.5 mg/kg"}, "[10]": {"test_system": "Mus musculus", "experiment": "Tested for antiinflammatory activity on mouse type II collagen arthritis as Paw swelling of all animals in each group on day 30 at intraperitoneal dose of 1.50 mg/kg", "conditions": "dose 1.5 mg/kg"}, "[11]": {"test_system": "Mus musculus", "experiment": "Tested for antiinflammatory activity on mouse type II collagen arthritis as Paw swelling of all animals in each group on day 23 at intraperitoneal dose of 0.75 mg/kg"}, "[12]": {"test_system": "Mus musculus", "experiment": "Tested for antiinflammatory activity on mouse type II collagen arthritis as Paw swelling of all animals in each group on day 23 at intraperitoneal dose of 1.50 mg/kg", "conditions": "dose 1.5 mg/kg"}, "[13]": {"test_system": "Mus musculus", "experiment": "Tested for antiinflammatory activity on mouse type II collagen arthritis as Paw swelling of all animals in each group on day 44 at intraperitoneal dose of 0.75 mg/kg"}, "[14]": {"test_system": "Mus musculus", "experiment": "Tested for antiinflammatory activity on mouse type II collagen arthritis as Paw swelling of all animals in each group on day 30 at intraperitoneal dose of 0.75 mg/kg"}, "[15]": {"test_system": "Mus musculus", "experiment": "Tested for antiinflammatory activity on mouse type II collagen arthritis as Paw swelling of all animals in each group on day 37 at intraperitoneal dose of 0.75 mg/kg"}, "[16]": {"test_system": "Mus musculus", "experiment": "Tested for antiinflammatory activity on mouse type II collagen arthritis as Paw swelling of all animals in each group on day 37 at intraperitoneal dose of 1.50 mg/kg", "conditions": "dose 1.5 mg/kg"}},
  "data": [
    {"compound": "Nc1nc(N)c2cc(CNc3ccc(C(=O)NC(CCC(=O)O)C(=O)O)cc3)cnc2n1", "note": "(stereo unspecified)", "values": [
      {"measurement": "Animals", "setting": "[1]", "result": 38, "unit": "%"},
      {"measurement": "Animals", "setting": "[2]", "result": 12, "unit": "%"},
      {"measurement": "Animals", "setting": "[3]", "result": 0, "unit": "%"},
      {"measurement": "Animals", "setting": "[4]", "result": 0, "unit": "%"},
      {"measurement": "Animals", "setting": "[5]", "result": 25, "unit": "%"},
      {"measurement": "Animals", "setting": "[6]", "result": 62, "unit": "%"},
      {"measurement": "Animals", "setting": "[7]", "result": 12, "unit": "%"},
      {"measurement": "Animals", "setting": "[8]", "result": 12, "unit": "%"},
      {"measurement": "Paw swelling", "setting": "[9]", "result": 2.21, "unit": "mm"},
      {"measurement": "Paw swelling", "setting": "[10]", "result": 2.16, "unit": "mm"},
      {"measurement": "Paw swelling", "setting": "[11]", "result": 2.14, "unit": "mm"},
      {"measurement": "Paw swelling", "setting": "[12]", "result": 2.1, "unit": "mm"},
      {"measurement": "Paw swelling", "setting": "[13]", "result": 2.28, "unit": "mm"},
      {"measurement": "Paw swelling", "setting": "[14]", "result": 2.19, "unit": "mm"},
      {"measurement": "Paw swelling", "setting": "[15]", "result": 2.23, "unit": "mm"},
      {"measurement": "Paw swelling", "setting": "[16]", "result": 2.17, "unit": "mm"}
    ]}
  ]
}
